Reference: US9732044B2, “N-(pyrid-4-yl)amides and N-(pyrimidin-4-yl)amides and their pharmaceutical and cosmetic use” (GALDERMA RESEARCH & DEVELOPMENT, priority 2011, dated 2017)
pKd: −log10 of the molar value. Where two headings read alike, the source gives them in different places.

Legend:
[1] = test system: sebaceous gland of the ear of a Syrian hamster; assay: In vivo animal model with reduction in the size of the sebaceous glands (Syrian hamster ear); conditions: 1 g %/mL solution, topical on ear, daily for 24 days, compared to control (absolute ethanol)
Source text: The model of the sebaceous gland of the ear of a Syrian hamster described by Plewig and Luderschmidt in J. Inv. Derm., (1977), pp. 171-176 is a classical tool for the in vivo study of the function of the sebaceous gland. In fact, the inner faces of the ear lobes of the hamster contain a high number of sebaceous glands described as being similar to those of human sebaceous follicles in terms of certain characteristics, including their morphology and response to androgens and anti-androgens. In fact the growth and lipogenesis of the sebaceous glands on the inner face of the ear of Syrian hamsters depend on the androgens. The anti-androgenic activity of test compounds can be easily evaluated by measuring the size of the sebaceous glands. Moreover, this model has been selected to evaluate the efficacy of the antagonists of the receptor to the androgens on the sebaceous gland.
Test compounds were evaluated according to the following protocol: male hamsters aged weeks were treated daily for 24 days on the inner face of the right ear with 30 μL of a solution of the test compound to be evaluated in absolute ethanol. For each test compound, groups were treated with solutions at a range of concentrations (e.g., from 0.01 g %/mL to 3 g %/mL), as well as absolute ethanol used as a control. (A concentration of 3 g %/mL means a concentration of 0.03 g/mL.)
At the end of the study, samples were taken from the treated ears. The skin of the inner face of the ear was separated from the cartilage. Under a binocular magnifying glass, two zones of 4 mm^2 were numbered. The size of the sebaceous glands was measured on the numerical images by manually trimming the glands by means of image analysis software (TINA.20). For each image some twenty glands were measured. The average area of the sebaceous glands was calculated for each treatment group.
A Student t-test for independent groups comparing each dose with vehicle was carried out to compare the average size of the sebaceous glands as a function of the doses applied. When the evolution of the effect is represented graphically as a function of the administered dose of test compound, the curve obtained is sigmoid in shape. In the median part, this sigmoid may be likened to a straight line. The dose corresponding to 50% of the maximum effect corresponds graphically to the point located in the centre of the linear section defined as “effective dose 50”. This DE50 characterises the potency of the test compound.

androgen receptor (AR) = androgen receptor (AR) (Homo sapiens (Human), UniProt P10275); assay: Androgen receptor transactivation test in PALM cell line (cross curves against methyl trienolone); assay type: cell-based
Experimental: This AR inhibiting activity was measured in a transactivation test by the dissociation constants KdR (rest), KdA (active), and Kdapp (apparent).
A compound may be said to be an AR inhibitor if it has a dissociation constant, Kdapp, of less than or equal to 1 μM, and a KdR/KdA ratio of less than or equal to 10 in a transactivation test.
The transactivation test is carried out in the cell line PALM (PC3 androgen receptor Luciferase MMTV), which is a stable transfectant containing the plasmids PMMTV-neo-Luc (reporter gene) and pSG5puro-AR.
In this study, the affinity of each test compound for the 2 states of the receptor (KdR and KdA) is determined together with the apparent Kd (KdApp). This constant depends upon the 2 Kd's (KdR and KdA), but also depends on the initial equilibrium of the receptor between the active state and rest state (L0) and on its expression rate. It is determined by the following formula: 1/KdApp=(L0/(1+L0))×(1/KdR)+(1/(1+L0))×(1/KdA)
In order to determine these constants, “cross curves” of the test compound against a reference agonist, methyl trienolone, are carried out on a 96-well plate. The test compound is used in 10 concentrations and the reference agonist in 7 concentrations.

[2] = apparent dissociation constant, PALM cells (PC3 androgen receptor Luciferase MMTV), read-out: Kdapp
[3] = threshold lists, PALM cells, read-out: Kdapp

Chain of androgen receptor (AR) (P10275 whole entry): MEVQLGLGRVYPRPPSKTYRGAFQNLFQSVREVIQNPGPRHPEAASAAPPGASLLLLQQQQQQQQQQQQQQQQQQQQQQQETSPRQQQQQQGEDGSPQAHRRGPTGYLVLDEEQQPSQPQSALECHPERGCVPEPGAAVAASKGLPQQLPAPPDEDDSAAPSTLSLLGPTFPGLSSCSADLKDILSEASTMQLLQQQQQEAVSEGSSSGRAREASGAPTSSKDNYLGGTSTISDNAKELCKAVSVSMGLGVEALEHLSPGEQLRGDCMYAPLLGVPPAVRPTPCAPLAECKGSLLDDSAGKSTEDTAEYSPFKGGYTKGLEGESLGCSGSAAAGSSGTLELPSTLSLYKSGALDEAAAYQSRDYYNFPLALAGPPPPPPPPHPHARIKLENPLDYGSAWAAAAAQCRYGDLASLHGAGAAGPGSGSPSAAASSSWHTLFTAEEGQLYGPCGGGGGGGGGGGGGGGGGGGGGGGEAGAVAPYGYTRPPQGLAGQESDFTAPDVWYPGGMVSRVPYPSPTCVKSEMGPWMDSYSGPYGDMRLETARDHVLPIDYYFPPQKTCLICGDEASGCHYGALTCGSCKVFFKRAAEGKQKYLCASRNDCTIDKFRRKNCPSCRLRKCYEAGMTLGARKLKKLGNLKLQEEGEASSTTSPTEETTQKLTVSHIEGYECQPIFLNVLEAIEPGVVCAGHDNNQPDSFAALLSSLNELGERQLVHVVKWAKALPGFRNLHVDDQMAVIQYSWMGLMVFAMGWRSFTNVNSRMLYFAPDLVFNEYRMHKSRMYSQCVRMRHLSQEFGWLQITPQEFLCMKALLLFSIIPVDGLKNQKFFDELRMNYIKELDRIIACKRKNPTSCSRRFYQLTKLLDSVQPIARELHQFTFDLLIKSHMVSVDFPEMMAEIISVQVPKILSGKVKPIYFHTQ

| SMILES | Reduction of sebaceous glands (following treatment at 1 g %/mL) [1] [%] | pKd (androgen receptor (AR); [2]) | pKd (androgen receptor (AR); [3]) | pKd (androgen receptor (AR); Kdapp, threshold lists, PALM cells) |
| --- | --- | --- | --- | --- |
| COc1cc(NC(=O)C(C)(O)CC(C)C)cc(Br)n1 (racemic) [Compound 41, 2-Hydroxy-2,4-dimethyl-pentanoic acid (2-bromo-6-methoxy-pyridin-4-yl)-amide] | 61 | 7.70 | ≥ 7.52 |  |
| COc1cc(NC(=O)C(C)(O)CC(C)C)cc(Br)n1 (single isomer, unassigned) [Compound 71A] |  |  | ≥ 7.52 |  |
| COc1cc(NC(=O)C(C)(O)CC(C)C)cc(Br)n1 (single isomer, unassigned) [Compound 71B] | 56 |  | ≥ 7.52 |  |
| CCCCC(C)(O)C(=O)Nc1ccnc(Br)c1 (single isomer, unassigned) [Compound 80A, 2-Hydroxy-2-methyl-hexanoic acid (2-bromo-pyridin-4-yl)-amide] | 51 |  | ≥ 7.00 |  |
| CCCCC(C)(O)C(=O)Nc1ccnc(Br)c1 (single isomer, unassigned) [Compound 80B, 2-Hydroxy-2-methyl-hexanoic acid (2-bromo-pyridin-4-yl)-amide] |  |  | ≥ 6.52 |  |
| CCCC(C)(O)C(=O)Nc1ccnc(Br)c1 (stereo not shown) [Compound 1, 2-Hydroxy-2-methyl-pentanoic acid (2-bromo-pyridin-4-yl)-amide] | 53 | 7.12 | ≥ 7.00 |  |
| CCCCC(C)(O)C(=O)Nc1cc(Br)nc(OC)c1 (stereo not shown) [Compound 8, 2-Hydroxy-2-methyl-hexanoic acid (2-bromo-6-methoxy-pyridin-4-yl)-amide] | 56 | 7.52 | ≥ 7.52 |  |
| CCC(O)(C(=O)Nc1cc(Br)nc(OC)c1)C1CCCC1 (stereo not shown) [Compound 9, N-(2-Bromo-6-methoxy-pyridin-4-yl)-2-cyclopentyl-2-hydroxy-butyramide] |  |  | ≥ 7.52 |  |
| CCC(O)(C(=O)Nc1cc(Br)nc(OC)c1)C(C)C (stereo not shown) [Compound 13, N-(2-Bromo-6-methoxy-pyridin-4-yl)-2-ethyl-2-hydroxy-3-methyl-butyramide] |  |  | ≥ 7.52 |  |
| CCCC(O)(CC)C(=O)Nc1cc(Br)nc(OC)c1 (stereo not shown) [Compound 19, 2-Ethyl-2-hydroxy-pentanoic acid (2-bromo-6-methoxy-pyridin-4-yl)-amide] | 61 |  | ≥ 7.52 |  |
| CCCCC(O)(CCCC)C(=O)Nc1ccnc(Br)c1 [Compound 23, 2-Butyl-2-hydroxy-hexanoic acid (2-bromo-pyridin-4-yl)-amide] | 51 | 7.82 | ≥ 7.52 |  |
| COc1ccc(CCC(C)(O)C(=O)Nc2ccnc(Br)c2)cc1 (stereo not shown) [Compound 24, N-(2-Bromo-pyridin-4-yl)-2-hydroxy-4-(4-methoxy-phenyl)-2-methyl-butyramide] |  | 6.52 | ≥ 6.52 |  |
| COc1cc(NC(=O)C(C)(O)C(C)C)cc(Br)n1 (stereo not shown) [Compound 25, N-(2-Bromo-6-methoxy-pyridin-4-yl)-2-hydroxy-2,3-dimethyl-butyramide] |  |  | ≥ 7.52 |  |
| COc1cc(NC(=O)C(C)(O)c2ccc(F)cc2)ccn1 (stereo not shown) [Compound 27, 2-(4-Fluoro-phenyl)-2-hydroxy-N-(2-methoxy-pyridin-4-yl)-propionamide] |  |  | ≥ 6.52 |  |
| CC(O)(C(=O)Nc1ccnc(Br)c1)c1ccccc1 (stereo not shown) [Compound 32, N-(2-Bromo-pyridin-4-yl)-2-hydroxy-2-phenyl-propionamide] |  | 7.00 | ≥ 7.00 |  |
| COc1cc(NC(=O)C(C)(C)O)cc(Br)n1 [Compound 38, N-(2-Bromo-6-methoxy-pyridin-4-yl)-2-hydroxy-2-methyl-propionamide] |  |  | ≥ 6.52 |  |
| CC(O)(CCc1ccccc1)C(=O)Nc1ccnc(Br)c1 (stereo not shown) [Compound 43, N-(2-Bromo-pyridin-4-yl)-2-hydroxy-2-methyl-4-phenyl-butyramide] | 44 | 7.00 |  | ≥ 7.00 |

| SMILES | Reduction of sebaceous glands (following treatment at 1 g %/mL) [1] [%] | pKd (androgen receptor (AR); [2]) | pKd (androgen receptor (AR); [3]) | pKd (androgen receptor (AR); Kdapp, threshold lists, PALM cells) |
| --- | --- | --- | --- | --- |
| CCC(O)(C(=O)Nc1ccnc(Br)c1)C1CCCC1 (stereo not shown) [Compound 51, N-(2-Bromo-pyridin-4-yl)-2-cyclopentyl-2-hydroxy-butyramide] |  |  | ≥ 7.52 |  |
| CCCC(C)(O)C(=O)Nc1ccnc(C(=O)OC)c1 (stereo not shown) [Compound 59, 4-(2-Hydroxy-2-methyl-pentanoylamino)-pyridine-2-carboxylic acid methyl ester] |  | 5.22 | ≥ 5.00 |  |
| CCCC(C)(O)C(=O)Nc1cc(Br)nc(OC)c1 (stereo not shown) [Compound 60, 2-Hydroxy-2-methyl-pentanoic acid (2-bromo-6-methoxy-pyridin-4-yl)-amide] |  |  | ≥ 7.00 |  |
| CCCC(O)(C(=O)Nc1cc(Br)nc(OC)c1)C(C)C (stereo not shown) [Compound 64, 2-Hydroxy-2-isopropyl-pentanoic acid (2-bromo-6-methoxy-pyridin-4-yl)-amide] |  |  | ≥ 7.52 |  |
| CCCCC(O)(CCCC)C(=O)Nc1cc(Br)nc(OC)c1 [Compound 66, 2-Butyl-2-hydroxy-hexanoic acid (2-bromo-6-methoxy-pyridin-4-yl)-amide] |  |  | ≥ 7.00 |  |
| COc1cc(NC(=O)C(C)(O)C2CCOCC2)cc(Br)n1 (stereo not shown) [Compound 69, N-(2-Bromo-6-methoxy-pyridin-4-yl)-2-hydroxy-2-(tetrahydro-pyran-4-yl)-propionamide] |  |  | ≥ 6.00 |  |
| CCC(O)(C(=O)Nc1cc(Br)nc(OC)c1)C1CCCC1 (stereo not shown) [Compound 73A, N-(2-Bromo-6-methoxy-pyridin-4-yl)-2-cyclopentyl-2-hydroxy-butyramide] |  |  | ≥ 7.52 |  |
| CCC(O)(C(=O)Nc1cc(Br)nc(OC)c1)C1CCCC1 (stereo not shown) [Compound 73B, N-(2-Bromo-6-methoxy-pyridin-4-yl)-2-cyclopentyl-2-hydroxy-butyramide] |  |  | ≥ 7.00 |  |
| CCC(O)(C(=O)Nc1cc(Br)nc(OC)c1)C(C)C (stereo not shown) [Compound 74A, N-(2-Bromo-6-methoxy-pyridin-4-yl)-2-ethyl-2-hydroxy-3-methyl-butyramide] |  |  | ≥ 7.52 |  |
| CCCC(O)(CC)C(=O)Nc1cc(Br)nc(OC)c1 (stereo not shown) [Compound 75A, 2-Ethyl-2-hydroxy-pentanoic acid (2-bromo-6-methoxy-pyridin-4-yl)-amide] |  |  | ≥ 7.00 |  |
| CCCC(O)(CC)C(=O)Nc1cc(Br)nc(OC)c1 (stereo not shown) [Compound 75B, 2-Ethyl-2-hydroxy-pentanoic acid (2-bromo-6-methoxy-pyridin-4-yl)-amide] |  |  | ≥ 7.00 |  |
| COc1cc(NC(=O)C(C)(O)C(C)C)cc(Br)n1 (stereo not shown) [Compound 76B, N-(2-Bromo-6-methoxy-pyridin-4-yl)-2-hydroxy-2,3-dimethyl-butyramide] |  |  | ≥ 7.00 |  |
| CCC(O)(C(=O)Nc1ccnc(Br)c1)C1CCCC1 (stereo not shown) [Compound 77A, N-(2-Bromo-pyridin-4-yl)-2-cyclopentyl-2-hydroxy-butyramide] |  |  | ≥ 7.52 |  |
| CCC(O)(C(=O)Nc1ccnc(Br)c1)C1CCCC1 (stereo not shown) [Compound 77B, N-(2-Bromo-pyridin-4-yl)-2-cyclopentyl-2-hydroxy-butyramide] |  |  | ≥ 7.52 |  |
| CCCC(C)(O)C(=O)Nc1cc(Br)nc(OC)c1 (stereo not shown) [Compound 78A, 2-Hydroxy-2-methyl-pentanoic acid (2-bromo-6-methoxy-pyridin-4-yl)-amide] |  |  | ≥ 7.00 |  |
| CCCC(O)(C(=O)Nc1cc(Br)nc(OC)c1)C(C)C (stereo not shown) [Compound 79B, 2-Hydroxy-2-isopropyl-pentanoic acid (2-bromo-6-methoxy-pyridin-4-yl)-amide] |  |  | ≥ 7.52 |  |
